From patent publication US8445461B2, “Pharmaceutical composition for meniere's disease” (Setsuko Takeda, priority 2007, dated 2013) come the findings set out here.

In series [1] the test system is guinea pigs excreting normal feces. Kind of series: Antidiarrheal effect: observation of feces after oral administration of saccharides or sugar alcohols with or without polysaccharides (Example 1). The class given is in vivo. The protocol:
The criteria for analyzing the conditions of feces (hardness, shape and spaces of feces in the intestine) are as shown in Table 2:
The hardness and microscopic findings of feces from the group administered with distilled water were assessed as “Normal” scoring 3, the feces having normal shape and the shape could rather easily change by pushing with fingers were assessed as “Slightly soft” scoring 2, those of which the shape had already changed or it could quite easily change by pushed with fingers were assessed as “Soft” scoring 1, and those of which the shape is muddy or watery or of no shape were assessed “Muddy” scoring 0. To be precese, there are no watery feces because of the nature of diets and thus the muddy feces correspond to watery and muddy feces in human.
Since the muddy feces comprise large content of water, they induce the high abdominal pressure and the flatulence and distension. […] In the case of gas generation, it appears that noxious symptom such as the flatulence and distension are synergistically deteriorated. Therefore, we assessed not only based on the hardness of feces, but also the size, smoothness of the surface and amount of feces.
In these experiments, I observed is the diarrhea caused by saccharides or sugar alcohols and antidiarrhreal effect of saccharides. Guinea pigs orally received saccharides or sugar alcohols, for example tetrose such as erythritol, pentose such as xylitol or xylose, hexose such as isosorbitol or the like in combination with or without polysaccharides for observation of the feces up to 6 hours after the administration.
Guinea pigs (body weight 280 to 320 g, normal feces) were divided into four groups: for Group 1-a, xylitol alone (Reference Example 1), or xylitol and xanthan gum or pectin; for Group 1-b, xylose alone (Reference Example 2), xylose and xanthan gum or pectin; for Group 1-c, erythritol alone (Reference Example 3), erythritol and pectin, erythritol and xanthan gum, or erythritol, pectin and natural aluminum silicate gel or calcium carbonate; and for Group 1-d, isosorbitol alone (Reference Example 4), or isosorbitol and xanthan gum or pectin were orally administered, respectively. The compounds are dissolved in distilled water and 8 ml/kg of said solution were administered as a single dose.
The feces were observed during 6 hours after the administration. When the animals fell into the most serious condition, the hardness and shape of the feces from said animals were assessed as the effect by saccharides or sugar alcohols in the animals.

In series [2] the test system is guinea pigs. Kind of series: Reference Example 7: erythritol or isosorbitol added jelly, conditions of feces and gastrointestinal tract. The class given is in vivo. An excerpt:
As described hereinbefore, erythritol or isosorbitol as saccharides or sugar alcohols added jelly as a thickner were orally administered to 10 guinea pigs (280 to 350 g body weight) as shown in Table 41. The conditions of feces were observed.

Where [3] appears, read: active agent 2.8 g/kg oral, alone or with additives of the label, most serious condition within 6 hours.
[4] abbreviates: agent 2.8 g/kg oral + Jelly 0.05 g/kg, 5 animals.
The mark [5] stands for this setting: agent 2.8 g/kg oral + Jelly 0.1 g/kg, 5 animals.
Setting [6] is: agent 2.8 g/kg oral + Jelly 0.15 g/kg, 5 animals.
Setting [7] is: agent 2.8 g/kg oral, no additive dosage (agent alone).

Regarding `OC[C@@H](O)[C@@H](O)CO` [Erythritol, erythritol], the “Time after administration of the peak (most serious) diarrhea” value in series [1] (active agent 2.8 g/kg oral, alone or with additive of the label) is reported as “Three hours after”. For the same molecule, in series [1] (setting [3]), the “Hardness of feces: Hard (number of animals)” value amounted to 0, the “Hardness of feces: Muddy (number of animals)” value (“Hardness of feces: Muddy” for short) turned out to be 5, the “Hardness of feces: Normal (number of animals)” value (shortened to “Hardness of feces: Normal”) is on record as 0 and the “Hardness of feces: Slightly soft (number of animals)” value (“Hardness of feces: Slightly soft” for short) worked out at 0. For the same molecule, the “Hardness of feces: Soft (number of animals)” value (shortened to “Hardness of feces: Soft”) in series [1] (setting [3]) turned out to be 0. For the same molecule, the “Animals in which muddy feces continued up to 6 hours after” value in series [1] (erythritol 2.8 g/kg alone, 5 animals) was determined as 3. For the same molecule, in series [2] (setting [4]), the “Hardness of feces: Muddy” value worked out at 5, the “Hardness of feces: Normal” value is 0, the “Hardness of feces: Slightly soft” value stood at 0 and the “Hardness of feces: Soft” value was found to be 0. In series [2] (setting [5]), the “Hardness of feces: Muddy” value stood at 5, the “Hardness of feces: Normal” value is 0, the “Hardness of feces: Slightly soft” value is listed as 0 and the “Hardness of feces: Soft” value amounted to 0. Moreover, in series [2] (setting [6]), the “Hardness of feces: Muddy” value came out at 5, the “Hardness of feces: Normal” value was found to be 0, the “Hardness of feces: Slightly soft” value is 0 and the “Hardness of feces: Soft” value is 0. Moreover, in series [2] (setting [7]), the “Hardness of feces: Muddy” value is 5, the “Hardness of feces: Normal” value came to 0, the “Hardness of feces: Slightly soft” value is on record as 0 and the “Hardness of feces: Soft” value was determined as 0.
